Activity data for 2 substances are collected here from US3937820A, “Insulin composition providing alternatives to immunological resistance” (Hoechst Aktiengesellschaft, priority 1972, dated 1976).

Bounds are passed on as bounds.

The nature of the experiment: activity of the starting insulins in I.U./mg. The note with it: starting insulin; crystallized insulin calculated on dry substance.

On to “crystallized insulin: pure crystallized complete insulin used as starting material”, for which the activity was ≥ 25 I.U./mg. The figure for “des-phenyl-alanine^B1 insulin [des-Phe^B1 insulin]” is 25 I.U./mg.
